Measurements taken from ChEMBL document CHEMBL1201862, “PubChem BioAssay data set” (2004).
Calls of active or inactive are those of the source.

How the values were obtained:
[1] = HEp-2 cell cytotoxicity, dose response, cytotoxicity control for RSV inhibitor project, HTS (AID 2410); format: functional; details: human respiratory syncytial virus
[2] = biological target: T1, Short transient receptor potential channel 4 (Mus musculus, UniProt Q9QUQ5); assay: mouse TRPC4 channel inhibitors, dose response, cell-based, HEK293 TRPC4/mu-opioid, Fluo-4 calcium (AID 434942); format: functional;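 note: potency of inhibitors blocking the TRPC4 calcium response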
T1 sequence (Q9QUQ5 whole entry): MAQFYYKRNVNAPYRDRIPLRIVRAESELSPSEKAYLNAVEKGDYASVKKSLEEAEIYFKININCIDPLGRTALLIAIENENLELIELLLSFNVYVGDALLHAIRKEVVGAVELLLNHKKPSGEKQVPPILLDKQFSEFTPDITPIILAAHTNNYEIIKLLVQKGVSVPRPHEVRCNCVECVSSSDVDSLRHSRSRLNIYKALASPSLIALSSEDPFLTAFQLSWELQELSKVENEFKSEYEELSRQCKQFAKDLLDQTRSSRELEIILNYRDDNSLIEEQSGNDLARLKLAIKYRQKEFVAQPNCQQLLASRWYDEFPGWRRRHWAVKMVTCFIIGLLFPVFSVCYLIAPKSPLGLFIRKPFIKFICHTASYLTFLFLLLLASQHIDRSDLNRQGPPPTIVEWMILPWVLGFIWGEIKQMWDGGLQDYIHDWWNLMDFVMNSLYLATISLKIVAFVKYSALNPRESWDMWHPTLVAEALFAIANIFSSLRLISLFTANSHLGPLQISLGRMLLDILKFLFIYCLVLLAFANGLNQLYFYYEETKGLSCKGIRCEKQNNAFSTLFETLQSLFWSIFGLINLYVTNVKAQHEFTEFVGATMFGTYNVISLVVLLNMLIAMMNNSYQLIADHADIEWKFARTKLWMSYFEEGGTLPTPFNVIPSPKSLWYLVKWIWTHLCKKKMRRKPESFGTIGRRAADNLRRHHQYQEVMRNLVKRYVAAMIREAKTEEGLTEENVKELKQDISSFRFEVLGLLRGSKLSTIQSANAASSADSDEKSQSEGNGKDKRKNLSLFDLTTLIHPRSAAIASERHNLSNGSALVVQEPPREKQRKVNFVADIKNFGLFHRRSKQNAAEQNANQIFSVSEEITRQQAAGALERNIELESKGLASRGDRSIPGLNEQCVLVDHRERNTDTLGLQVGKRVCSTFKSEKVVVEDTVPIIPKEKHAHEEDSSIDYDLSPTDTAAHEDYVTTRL

[3] = biological target: T2, Heat shock factor protein 1 (Mus musculus, UniProt P38532); assay: inhibition of MG132-induced HSE-luciferase signal, confirmation, cell-based, NIH3T3, luminescence, dose retest (AID 2382); format: functional;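 note: NIH3T3 fibroblasts with HSF1-driven luciferase reporter stressed by proteasome inhibitor MG132; luminescence from HSF1-driven luciferase expression after 8 hours of MG132 stress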
T2 sequence (P38532 whole entry): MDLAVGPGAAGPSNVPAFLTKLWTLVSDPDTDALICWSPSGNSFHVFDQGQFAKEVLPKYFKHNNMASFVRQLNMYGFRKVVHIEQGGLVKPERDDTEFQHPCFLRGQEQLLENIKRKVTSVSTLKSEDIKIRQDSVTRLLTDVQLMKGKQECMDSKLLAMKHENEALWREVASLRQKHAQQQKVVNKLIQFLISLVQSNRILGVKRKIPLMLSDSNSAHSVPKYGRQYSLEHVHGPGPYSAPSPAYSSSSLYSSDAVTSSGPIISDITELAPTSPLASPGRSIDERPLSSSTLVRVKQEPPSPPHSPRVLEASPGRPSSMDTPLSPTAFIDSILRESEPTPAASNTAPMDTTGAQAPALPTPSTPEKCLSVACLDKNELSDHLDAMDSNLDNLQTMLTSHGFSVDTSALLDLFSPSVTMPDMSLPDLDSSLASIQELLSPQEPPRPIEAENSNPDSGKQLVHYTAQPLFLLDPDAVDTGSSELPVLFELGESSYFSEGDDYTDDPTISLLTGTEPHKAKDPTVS

[4] = biological target: Luciferin 4-monooxygenase (Photinus pyralis, UniProt P08659); assay: firefly luciferase enzyme inhibitors, dose response, biochemical, luminescence (AID 1891)
[5] = biological target: Nucleotide-binding oligomerization domain-containing protein 2 (Homo sapiens, UniProt Q9HC29); assay: NOD2 signaling inhibitors, cell-based, luminescence, uHTS, HEK293 (AID 1566); format: functional
Paired box protein Pax-8 = Paired box protein Pax-8 (Homo sapiens, UniProt Q06710); assay: inhibitors of PAX8-driven TPO luciferase reporter, dose response, RMG-I cells, cherry-pick (AID 687027); format: functional, cell-based;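 note: luciferase reporter driven by Pax8 target thyroperoxidase promoter measured by SteadyGlo luminescence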
[6] = biological target: T3, Ubiquitin-conjugating enzyme E2 N (Homo sapiens, UniProt P61088); format: functional;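 note: Dose-response confirmation in a TR-FRET assay detecting UBC13-driven polyubiquitin chain formation, inhibition measured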
T3 sequence (P61088 whole entry): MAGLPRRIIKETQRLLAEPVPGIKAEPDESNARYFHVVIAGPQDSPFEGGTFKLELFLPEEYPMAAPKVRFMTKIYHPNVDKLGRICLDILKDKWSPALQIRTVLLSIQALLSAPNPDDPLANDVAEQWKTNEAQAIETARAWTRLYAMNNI

[7] = biological target: Eukaryotic translation initiation factor 4E (Mus musculus, UniProt P63073); assay: eIF4E–eIF4G protein interaction inhibitors, dose response, biochemical, TR-FRET (AID 855); format: functional;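 note: potency for disrupting eIF4E binding to eIF4GI seen as loss of FRET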
[8] = biological target: G-protein coupled receptor 55 (Homo sapiens, UniProt Q9Y2T6); assay: GPR55 agonists via beta-arrestin recruitment, primary screen, imaging, U2OS cells, beta-arrestin-GFP redistribution (AID 1961); format: functional
Troponin, cardiac muscle = Troponin, cardiac muscle (Homo sapiens, UniProt P19429+P45379+P63316); assay: Fluorescence-based biochemical high throughput dose response assay for activators of the calcium sensitivity of cardiac Regulated Thin Filaments (RTF). [Related pubchem assays (depositor defined):AID493008, AID493018, AID504382, AID504383]; format: protein-complex assay
[9] = cytotoxicity in HEK-293T cells, dose response, cytotoxicity control for BCR NF-kB inhibitor project, luminescence, B-cell screen hits (AID 489021); format: functional, cell-based;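 note: HEK-293T cells carrying an NF-kB luciferase reporter; cells exposed to compound for about 14 hours before viability readout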
HEK293 = assay: cells; format: functional, cell-based; details: Homo sapiens
[10] = biological target: T4, Nuclear receptor subfamily 0 group B member 1 (Homo sapiens, UniProt P51843); assay: Luminescence-based cell-based high throughput dose response assay for inhibitors of the orphan nuclear receptor subfamily 0, group B, member 1 (DAX1; NR0B1). [Related pubchem assays (depositor defined):AID504766, AID504790]; format: functional
T4 sequence (P51843 whole entry): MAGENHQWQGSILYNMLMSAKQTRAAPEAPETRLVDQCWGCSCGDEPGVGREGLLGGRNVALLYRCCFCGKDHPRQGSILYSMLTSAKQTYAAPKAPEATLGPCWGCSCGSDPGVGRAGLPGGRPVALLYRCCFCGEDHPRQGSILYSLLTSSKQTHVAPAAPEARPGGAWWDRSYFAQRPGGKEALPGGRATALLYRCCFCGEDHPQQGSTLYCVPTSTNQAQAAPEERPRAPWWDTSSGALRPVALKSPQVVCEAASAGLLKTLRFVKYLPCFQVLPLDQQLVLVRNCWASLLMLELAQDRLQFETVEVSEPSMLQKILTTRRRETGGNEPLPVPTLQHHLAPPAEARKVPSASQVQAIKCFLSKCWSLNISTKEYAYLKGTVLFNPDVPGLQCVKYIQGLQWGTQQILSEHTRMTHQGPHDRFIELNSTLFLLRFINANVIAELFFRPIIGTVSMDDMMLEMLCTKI

[11] = biological target: Glyceraldehyde-3-phosphate dehydrogenase (Homo sapiens, UniProt P04406)
[12] = biological target: T5, Alkaline phosphatase, tissue-nonspecific isozyme (Homo sapiens, UniProt P05186); assay: human TNAP enzyme inhibitors, SAR follow-up, biochemical, luminescent, dose response (AID 1056)
T5 sequence (P05186 whole entry): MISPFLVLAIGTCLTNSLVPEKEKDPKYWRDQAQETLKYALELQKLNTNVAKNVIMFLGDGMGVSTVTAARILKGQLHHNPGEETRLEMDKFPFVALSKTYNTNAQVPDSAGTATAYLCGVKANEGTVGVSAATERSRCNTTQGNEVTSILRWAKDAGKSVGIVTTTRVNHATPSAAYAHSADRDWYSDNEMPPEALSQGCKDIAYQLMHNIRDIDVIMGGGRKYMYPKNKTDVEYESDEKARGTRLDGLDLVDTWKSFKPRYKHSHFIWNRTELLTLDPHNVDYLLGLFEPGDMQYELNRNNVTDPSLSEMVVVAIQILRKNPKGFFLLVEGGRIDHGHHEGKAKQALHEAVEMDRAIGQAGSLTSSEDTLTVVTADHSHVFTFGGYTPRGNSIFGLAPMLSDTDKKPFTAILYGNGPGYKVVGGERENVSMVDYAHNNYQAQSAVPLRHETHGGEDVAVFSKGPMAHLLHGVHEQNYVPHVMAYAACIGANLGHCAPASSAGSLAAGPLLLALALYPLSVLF

[13] = NIH-3T3 fibroblast cytotoxicity, dose response, cytotoxicity control, cell-based, fluorescence, Alamar Blue, secondary assay (AID 2327); format: functional;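 note: NIH-3T3 mouse fibroblasts cultured with fluconazole at 8 µg/mL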
[14] = inhibitors of firefly luciferase expression or activity, dose response, H4 neuroglioma cells, luminescence (AID 1990); format: functional, cell-based
[15] = test system: Streptococcus sp. 'group A'; assay: growth inhibition of control SK(-) GAS strain, dose response, counter-screen for streptokinase expression inhibitor project, luminescence, kanamycin, BacTiterGlo, confirmation (AID 1900); format: functional, organism-based
[16] = Luminescence Cell-Based Dose Response HTS to Identify Inhibitors of 5'UTR Stem-Loop Driven Prion Protein mRNA Translation in H4 Neuroglioblastoma Cells. [Related pubchem assays: 1827 (Project Summary), 1813 (Primary HTS)]; format: functional
[17] = inhibitors of SNCA 5'UTR-driven reporter translation, confirmation, H4 neuroglioma cells, luminescence (AID 1988); format: functional, cell-based
Streptokinase A = biological target: T6, Streptokinase A (Streptococcus pyogenes serotype M1, UniProt P10520); assay: S. pyogenes streptokinase expression inhibitors, potency, dose response, plasminogen activation absorbance, OD405 (AID 1914); format: functional, Streptococcus pyogenes M1 GAS;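 note: secreted streptokinase activity via plasminogen activation per viability signal from cell pellet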
T6 sequence (P10520 whole entry): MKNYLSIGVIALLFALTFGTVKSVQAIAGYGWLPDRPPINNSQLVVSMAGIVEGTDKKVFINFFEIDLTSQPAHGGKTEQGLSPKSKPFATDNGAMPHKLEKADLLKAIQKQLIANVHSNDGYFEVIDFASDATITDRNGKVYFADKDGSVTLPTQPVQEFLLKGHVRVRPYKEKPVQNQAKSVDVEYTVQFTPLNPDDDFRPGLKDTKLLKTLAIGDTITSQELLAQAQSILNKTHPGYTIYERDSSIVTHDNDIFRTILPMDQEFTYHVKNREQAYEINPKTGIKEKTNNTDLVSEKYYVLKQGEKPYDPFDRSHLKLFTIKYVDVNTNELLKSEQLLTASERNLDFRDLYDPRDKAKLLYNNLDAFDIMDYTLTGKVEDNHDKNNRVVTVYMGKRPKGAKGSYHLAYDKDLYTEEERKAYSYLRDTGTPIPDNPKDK

[18] = C. albicans growth with fluconazole, confirmation, fluorescence, retest (AID 2467); format: functional, cell-based
Streptococcus = assay: Group A Streptococcus viability loss, dose response, counter-screen for streptokinase expression inhibitor project, luminescence, BacTiterGlo (AID 1915); format: functional, organism-based;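 note: potency for reduction of bacterial viability or growth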
Nonstructural protein 1 = Nonstructural protein 1 (Influenza A virus, UniProt Q194T2); format: functional, Influenza A virus (A/California/07/2009(H1N1))
INS1 = assay: beta cell apoptosis inhibitors, cytokine rescue, dose response, luminescence, retest (AID 449756); format: functional, cell-based; details: Rattus norvegicus;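 note: cell death triggered by IL-1 beta plus TNF-alpha plus IFN-gamma mixture; protective hits raise ATP signal compared with cytokine alone wells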

SMILES: Cc1ccc(Nc2cc(C)nc3ccc(C)cc23)cc1
- CC50 [1]: 45.9 µM (active)
- EC50 [2]: 1.5 µM (active)

SMILES: COc1ccc(N(Cc2cc3cc(OC)ccc3[nH]c2=O)S(=O)(=O)c2ccc(NC(C)=O)cc2)cc1
- EC50 [3]: 0.309 µM (active)
- EC50 [4]: > 112 µM (not active)
- EC50 [5]: > 20 µM (inactive)
- AC50 (Paired box protein Pax-8): 1.29 µM (active)

SMILES: COc1cc(CNC2CCCC2)c(Br)cc1OC1CCCC1
- EC50 [2]: 0.0373 µM (active)

SMILES: Cc1ccc(-c2csc(NC(=O)CSc3nc4ccccc4c(=O)n3CCCN(C)C)n2)cc1
- IC50 [6]: > 20 µM (inactive)
- IC50 [7]: 50 µM (inactive)

SMILES: CCN(CC)C(=O)CC(c1ccc(N(C)C)cc1)c1c(OC)cc(OC)c2c(-c3ccccc3)cc(=O)oc12 (centres undefined)
- EC50 [8]: 2.74 µM (active)

SMILES: S=c1[nH]nc(-c2ccc(Cl)cc2)n1-c1ccc2c(c1)OCCO2
- EC50 (Troponin, cardiac muscle): > 71.5 µM (inactive)

SMILES: CC(C)C[C@@H](CSc1ccccc1)N1CCN(CCc2ccccc2)CCC1=O
- EC50 [8]: 6.56 µM (active)

SMILES: COc1ccccc1NS(=O)(=O)c1ccc(NN=C2CCCC2)c([N+](=O)[O-])c1
- IC50 [7]: > 64 µM (inactive)

SMILES: N=c1sccn1CC(=O)Nc1ccccc1Oc1ccccc1
- EC50 [2]: 5.96 µM (active)

SMILES: Cn1c(=O)n(C)c2cc(C(=O)Nc3ccc4c(c3)OCO4)ccc21
- IC50 [9]: > 80 µM (inactive)
- IC50 (HEK293): > 67.5 µM (inactive)
- IC50 [10]: 4.57 µM (active)

SMILES: O=S(=O)(Nc1cccnc1)c1ccccc1OC(F)(F)F
- IC50 [11]: > 100 µM (not active)
- IC50 [12]: > 100 µM (inactive)

SMILES: Cc1ccc2cc(CN(CCCN3CCOCC3)C(c3nnnn3Cc3ccco3)C(C)C)c(O)nc2c1C (centres undefined)
- EC50 [2]: 0.473 µM (active)

SMILES: COc1cccc(/C=N/Nc2cc(N3CCOCC3)ncn2)c1O
- EC50 [13]: > 150 µM (inactive)
- EC50 [14]: 8.79 µM (active)
- EC50 [15]: 9.07 µM (active)
- EC50 [16]: 4.01 µM (active)
- EC50 [17]: 4.5 µM (active)
- EC50 (Streptokinase A): > 150 µM (not active)
- EC50 [18]: 5.78 µM (active)
- EC50 (Streptococcus): 9.45 µM (active)
- IC50 (Nonstructural protein 1): 5.96 µM (active)
- AC50 (INS1): 3.04 µM (active)

SMILES: Oc1[nH]nc(C(F)(F)F)c1/C=N/Cc1ccccc1Cl
- EC50 (Troponin, cardiac muscle): > 71.4 µM (inactive)

SMILES: Sc1nnc(-c2ccco2)n1/N=C/c1ccc(Cl)cc1Cl
- IC50 [7]: > 64 µM (inactive)

SMILES: Oc1c(Cl)cc(Cl)cc1/C=N/c1ccccc1N1CCCC1
- CC50 [1]: 20.9 µM (active)
- EC50 [8]: > 32 µM (inactive)
